Earlier results as cited in US20180117080A1, “COMPOSITIONS AND METHODS FOR TREATING SKIN CONDITIONS” (priority 2015, published 2018).

[Cl-].[K+] [KCl, Potassium Chloride]
g/L Water Solubility 20c: 344 g/L
